# From ChEMBL document CHEMBL3769391, “Identification of a new cyathane diterpene that induces mitochondrial and autophagy-dependent apoptosis and shows a potent in vivo anti-colorectal cancer activity” (Eur J Med Chem, 2016)
# Activity calls are given as the source filed them. The calls are words filed in the database; no cut-off is given here.
# Key:
# HCT-116 [1] = experiment: Induction of apoptosis in Bax deficient human HCT116 cells assessed as early apoptotic cells at 15 uM after 24 hrs by Annexin V-FITC/propidium iodide staining based flow cytometry (reference value: 0.85 to 1.13%); assay type: functional
# HCT-116 [2] = experiment: Induction of apoptosis in human HCT116 cells assessed as viable cells at 5 uM after 24 hrs by Annexin V-FITC/propidium iodide staining based flow cytometry (reference value: 93.64%); assay type: functional; details: HCT-116, 24 h, read-out: Activity
# HCT-116 [3] = experiment: Induction of apoptosis in human HCT116 cells assessed as early apoptotic cells at 2.5 uM after 24 hrs by Annexin V-FITC/propidium iodide staining based flow cytometry (reference value: 1.06%); assay type: functional
# HCT-116 [4] = experiment: Induction of apoptosis in human HCT116 cells assessed as early apoptotic cells at 5 uM after 24 hrs by Annexin V-FITC/propidium iodide staining based flow cytometry (reference value: 1.06 to 2.2%); assay type: functional
# HCT-116 [5] = experiment: Induction of apoptosis in human HCT116 cells assessed as early apoptotic cells at 7.5 uM after 24 hrs by Annexin V-FITC/propidium iodide staining based flow cytometry (reference value: 1.06%); assay type: functional
# HCT-116 [6] = experiment: Induction of apoptosis in human HCT116 cells assessed as late apoptotic cells at 7.5 uM after 24 hrs by Annexin V-FITC/propidium iodide staining based flow cytometry (reference value: 4.54%); assay type: functional
# HCT-116 [7] = experiment: Induction of apoptosis in human HCT116 cells assessed as late apoptotic cells at 10 uM after 12 hrs by Annexin V-FITC/propidium iodide staining based flow cytometry (reference value: 3.37%); assay type: functional
# HCT-116 [8] = experiment: Induction of apoptosis in human HCT116 cells assessed as caspase activation at 5 uM after 12 hrs by CaspACEFITC-VAD-FMK staining based flow cytometry (reference value: 7.72%); assay type: functional
# HCT-116 [9] = experiment: Induction of apoptosis in human HCT116 cells assessed as apoptotic cells at 5 uM after 24 hrs by Annexin V-FITC/propidium iodide staining based flow cytometry in presence of caspase inhibitor Z-VAD-FMK; assay type: functional
# HCT-116 [10] = experiment: Induction of apoptosis in human HCT116 cells assessed as PARP cleavage at 5 uM after 6 to 24 hrs by Western blot analysis; assay type: functional, cell-based
# HCT-116 [11] = experiment: Induction of apoptosis in human HCT116 cells assessed as viable cells at 5 uM after 24 hrs by Annexin V-FITC/propidium iodide staining based flow cytometry in presence of DTT (reference value: 93.64%); assay type: functional; details: HCT-116, 24 h, read-out: Activity
# HCT-116 [12] = experiment: Induction of apoptosis in human HCT116 cells assessed as early apoptotic cells at 5 uM after 24 hrs by Annexin V-FITC/propidium iodide staining based flow cytometry in presence of DTT (reference value: 2.2%); assay type: functional
# HCT-116 [13] = experiment: Induction of apoptosis in human HCT116 cells assessed as late apoptotic cells at 5 uM after 24 hrs by Annexin V-FITC/propidium iodide staining based flow cytometry in presence of DTT (reference value: 3.73%); assay type: functional
# HCT-116 [14] = experiment: Induction of apoptosis in human HCT116 cells assessed as necrotic cells at 5 uM after 24 hrs by Annexin V-FITC/propidium iodide staining based flow cytometry in presence of NAC (reference value: 0.44%); assay type: functional
# HCT-116 [15] = experiment: Induction of apoptosis in human HCT116 cells assessed as necrotic cells at 5 uM after 24 hrs by Annexin V-FITC/propidium iodide staining based flow cytometry in presence of DTT (reference value: 0.44%); assay type: functional
# HCT-116 [16] = experiment: Induction of apoptosis in human HCT116 cells assessed as depolarization of mitochondrial inner transmembrane potential after 24 hrs by TMRE staining based flow cytometry; assay type: functional, cell-based
# [17] = target: c-Jun N-terminal kinase, JNK (Homo sapiens) (UniProt P45983+P53779+P45984); experiment: Induction of JNK phosphorylation in human HCT116 cells at 5 uM after 4 hrs by Western blot analysis; assay type: cell-based; details: HCT-116
# HCT-116 [18] = experiment: Induction of apoptosis in human HCT116 cells assessed as decrease in Bcl-2 expression at 5 uM after 6 to 24 hrs by Western blot analysis; assay type: functional, cell-based
# HCT-116 [19] = experiment: Induction of apoptosis in Bax deficient human HCT116 cells assessed as early apoptotic cells at 5 uM after 24 hrs by Annexin V-FITC/propidium iodide staining based flow cytometry (reference value: 1.13%); assay type: functional
# HCT-116 [20] = experiment: Induction of apoptosis in Bax deficient human HCT116 cells assessed as early apoptotic cells at 20 uM after 24 hrs by Annexin V-FITC/propidium iodide staining based flow cytometry (reference value: 1.13%); assay type: functional
# HCT-116 [21] = experiment: Induction of apoptosis in Bax deficient human HCT116 cells assessed as late apoptotic cells at 20 uM after 24 hrs by Annexin V-FITC/propidium iodide staining based flow cytometry (reference value: 1.5%); assay type: functional
# HCT-116 [22] = experiment: Induction of apoptosis in Bax deficient human HCT116 cells assessed as early apoptotic cells at 15 uM after 24 hrs by Annexin V-FITC/propidium iodide staining based flow cytometry in presence of DTT (reference value: 0.85%); assay type: functional
# HCT-116 [23] = experiment: Induction of apoptosis in Bax deficient human HCT116 cells assessed as late apoptotic cells at 15 uM after 24 hrs by Annexin V-FITC/propidium iodide staining based flow cytometry in presence of NAC (reference value: 1.56%); assay type: functional
# HCT-116 [24] = experiment: Induction of apoptosis in Bax deficient human HCT116 cells assessed as late apoptotic cells at 15 uM after 24 hrs by Annexin V-FITC/propidium iodide staining based flow cytometry in presence of DTT (reference value: 1.56%); assay type: functional
# HCT-116 [25] = experiment: Induction of apoptosis in Bax deficient human HCT116 cells after 24 hrs by Annexin V-FITC/propidium iodide staining based flow cytometry; assay type: functional, cell-based
# HCT-116 [26] = experiment: Induction of chloroquine-induced autophagic flux in human HCT116 cells assessed as increase in LC3-2 level at 5 uM by Western blot analysis; assay type: functional, cell-based
# HCT-116 [27] = experiment: Induction of autophagy in human HCT116 cells assessed as ATG5-ATG12 complex at 5 uM after 4 to 12 hrs by Western blot analysis; assay type: functional, cell-based
# HCT-116 [28] = experiment: Induction of apoptosis in ATG5 knockdown human HCT116 cells assessed as late apoptotic cells at 5 uM after 24 hrs by Annexin V-FITC/propidium iodide staining based flow cytometry (reference value: 2.01%); assay type: functional
# HCT-116 [29] = experiment: Induction of apoptosis in human HCT116 cells assessed as ATG5 cleavage by Western blot analysis in presence of chloroquine; assay type: functional, cell-based
# HCT-116 [30] = experiment: Induction of apoptosis in human HCT116 cells assessed as ATG5 cleavage by Western blot analysis in presence of Z-VAD-FMK; assay type: functional, cell-based
# [31] = Antitumor activity against human HCT116 cells xenografted in immune deficient nude BALB/c mouse assessed as tumor growth inhibition at 5 mg/kg, ip administered every other day for 2 weeks measured after 2 weeks post last dose relative to control; assay type: functional; details: HCT-116, ip, 336 h, read-out: TGI
# [32] = Antitumor activity against human HCT116 cells xenografted in immune deficient nude BALB/c mouse assessed as tumor growth inhibition at 10 mg/kg, ip administered every other day for 2 weeks measured after 2 weeks post last dose relative to control; assay type: functional; details: HCT-116, ip, 336 h, read-out: TGI
compound,measurement,setting,value
CO[C@@H]1C(C=O)=CC[C@@H]2C3=C(C(C)C)CC[C@]3(C)CC[C@@]2(C)[C@H]1O,Activity,HCT-116 [1],47.04%
same,viability at 5 µM,HCT-116 [2],56.3%
same,Activity,HCT-116 [3],2.23%
same,Activity,HCT-116 [4],24.72%
same,Activity,HCT-116 [5],51.38%
same,Activity,HCT-116 [6],20.8%
same,Activity,HCT-116 [7],22.01%
same,Activity,HCT-116 [8],66.85%
same,Activity,HCT-116 [9],28.81%
same,Activity,HCT-116 [10],Active
same,viability at 5 µM,HCT-116 [11],80.8%
same,Activity,HCT-116 [12],5.58%
same,Activity,HCT-116 [13],13.34%
same,Activity,HCT-116 [14],0.81%
same,Activity,HCT-116 [15],0.33%
same,Activity,HCT-116 [16],Dose-dependent effect
same,Activity,[17],Active
same,Activity,HCT-116 [18],Active
same,Activity,HCT-116 [19],6.35%
same,Activity,HCT-116 [20],56.15%
same,Activity,HCT-116 [21],32.25%
same,Activity,HCT-116 [22],2.67%
same,Activity,HCT-116 [23],2.07%
same,Activity,HCT-116 [24],3.36%
same,Activity,HCT-116 [25],Dose-dependent effect
same,Activity,HCT-116 [26],Active
same,Activity,HCT-116 [27],Active
same,Activity,HCT-116 [28],1.85%
same,Activity,HCT-116 [29],inactive
same,Activity,HCT-116 [30],inactive
same,inhibition in vivo at 5 mg/kg,[31],26%
same,inhibition in vivo at 10 mg/kg,[32],62.2%
